Among the data in PubChem BioAssay AID200 (DTP/NCI, 2004) are T/C values, retold here.

For the assay, the system named is B6C3F1 mice, B16 melanoma ip, median survival T/C. The assay is described as follows: NCI In Vivo Anticancer Drug Screen. Data for tumor model B16 Melanoma (intraperitoneal) in B6C3F1 mice. The conditions noted are these: endpoint: median survival time, schedule: Q01DX009 (ip), higher = longer survival. As for the experimental part: The antitumor activity of compounds was measured in mice bearing transplantable tumors. Survival or tumor size were measured and the results are expressed as the measurement made in the treated group (T) divided by the measurement made in the vehicle treated control group (C). The tumor model used in this assay is B16 Melanoma (intraperitoneal) in B6C3F1 mice

Setting [1] is: dose: 1.25 mg/kg/injection, vehicle: saline.
Where [2] appears, read: dose: 1.56 mg/kg/injection, vehicle: saline with Tween-80.
The mark [3] stands for this setting: dose: 6.25 mg/kg/injection, vehicle: saline with Tween-80.
Setting [4] is: dose: 3.12 mg/kg/injection, vehicle: saline.
[5] abbreviates: dose: 6.25 mg/kg/injection, vehicle: saline.
Where [6] appears, read: dose: 25.0 mg/kg/injection, vehicle: saline.
Setting [7] is: dose: 12.5 mg/kg/injection, vehicle: Klucel (hydroxypropylcellulose) (HPC).
Setting [8] is: dose: 25.0 mg/kg/injection, vehicle: Klucel (hydroxypropylcellulose) (HPC).
The mark [9] stands for this setting: dose: 50.0 mg/kg/injection, vehicle: Klucel (hydroxypropylcellulose) (HPC).
Where [10] appears, read: dose: 100.0 mg/kg/injection, vehicle: saline.
Setting [11] is: dose: 200.0 mg/kg/injection, vehicle: saline.
Where [12] appears, read: dose: 12.5 mg/kg/injection, vehicle: saline with Tween-80.
The mark [13] stands for this setting: dose: 25.0 mg/kg/injection, vehicle: saline with Tween-80.
Where [14] appears, read: dose: 100.0 mg/kg/injection, vehicle: saline with Tween-80.
The mark [15] stands for this setting: dose: 50.0 mg/kg/injection, vehicle: saline.
Where [16] appears, read: dose: 50.0 mg/kg/injection, vehicle: saline with Tween-80.
Setting [17] is: dose: 200.0 mg/kg/injection, vehicle: saline with Tween-80.
Setting [18] is: dose: 3.12 mg/kg/injection, vehicle: saline with Tween-80.

Values joined by “and” are separate entries in the source; they are usually repeats but may differ in a detail not shown here. Equal values may be shown once. Toxic doses and inconclusive results are not listed. Where a SMILES comes first, the peptide text is derived from it.

Consider `N#CC(Br)(Br)C(N)=O`, for which the T/C was 96 % of control (dose: 0.31 mg/kg/injection, vehicle: saline); 87 % of control under setting [1]; 98 % of control (dose: 37.5 micrograms/kg/injection, vehicle: saline); 98 % of control (dose: 75.0 micrograms/kg/injection, vehicle: saline); 96 % of control (dose: 150.0 micrograms/kg/injection, vehicle: saline); 93 % of control (dose: 300.0 micrograms/kg/injection, vehicle: saline).
For the compound `CN(C)CSCN(C)C`, the T/C reads like this: under setting [2], 97 % of control; (dose: 3.13 mg/kg/injection, vehicle: saline with Tween-80) 89 % of control; under setting [3], 101 % of control.
`O=c1c(O)c(O)c1=O.[NH2-].[NH2-].[NH2-].[NH2-].[NH2-].[Ru+5]`: the T/C under setting [4] was 110 % of control; the T/C (dose: 3.75 mg/kg/injection, vehicle: saline) was 104 % of control; the T/C under setting [5] is 120 % of control; the T/C (dose: 10.42 mg/kg/injection, vehicle: saline) was 122 % of control; the T/C under setting [6] was 87 % of control.
As for `ClCc1ccc(Oc2ccc(CCl)cc2)cc1`, the T/C was 101 % of control (dose: 3.12 mg/kg/injection, vehicle: Klucel (hydroxypropylcellulose) (HPC)); 98 % of control (dose: 6.25 mg/kg/injection, vehicle: Klucel (hydroxypropylcellulose) (HPC)); 107 % of control under setting [7]; 112 % of control under setting [8]; 93 % of control under setting [9].
With `O=CCC(O)C(O)C(O)CO` (configuration not stated), the T/C (dose: 300.0 mg/kg/injection, vehicle: saline) was 112 % of control; the T/C (dose: 600.0 mg/kg/injection, vehicle: saline) was 103 % of control; the T/C (dose: 1200.0 mg/kg/injection, vehicle: saline) was 104 % of control; the T/C (dose: 1800.0 mg/kg/injection, vehicle: saline) was 108 % of control; the T/C (dose: 2400.0 mg/kg/injection, vehicle: saline) was 101 % of control.
Turning to `CN(C)CCc1ccc(O)cc1`, the T/C reads like this: under setting [10], 89 % of control; under setting [11], 92 % of control.
As to `CN(CC(=O)O)C(=O)CNC(=O)CNC(=O)OCc1ccccc1` (HELM PEPTIDE1{[O=C(OCc1ccccc1)[*:2]].G.G.[Sar]}$$$$V2.0), the T/C runs as follows: (dose: 100.0 mg/kg/injection, vehicle: Klucel (hydroxypropylcellulose) (HPC)) 104 % of control; (dose: 200.0 mg/kg/injection, vehicle: Klucel (hydroxypropylcellulose) (HPC)) 107 % of control; (dose: 400.0 mg/kg/injection, vehicle: Klucel (hydroxypropylcellulose) (HPC)) 98 % of control.
Consider `CC(=O)NC(CCc1ccc(Cl)c(Cl)c1)c1cccc(O)c(=O)c1` (configuration not stated), for which the T/C is, setting by setting: (dose: 3.0 mg/kg/injection, vehicle: Klucel (hydroxypropylcellulose) (HPC)) 93 % of control; (dose: 6.0 mg/kg/injection, vehicle: Klucel (hydroxypropylcellulose) (HPC)) 101 % of control; under setting [7], 101 % of control; under setting [8], 105 % of control; under setting [9], 105 % of control.
In the case of `O=C(N/N=C/c1c(O)ccc2ccccc12)C(=O)N/N=C/c1c(O)ccc2ccccc12`, the T/C is 110 % of control and 94 % of control and 107 % of control under setting [12]; 111 % of control and 112 % of control and 118 % of control under setting [13]; 94 % of control under setting [14].
`COC(=O)c1[nH]c(=O)[nH]c(=O)c1F`: the T/C is, setting by setting: under setting [15], 98 % of control; under setting [10], 94 % of control; under setting [11], 100 % of control.
For the compound `CCC(=O)Sc1ccccc1C(=O)Nc1ccc(Cl)cc1`, the T/C is 104 % of control under setting [13], 117 % of control under setting [16], 108 % of control under setting [14] and 115 % of control under setting [17].
With `COc1ccc2c(c1[N+](=O)[O-])CC[C@@H]1[C@@H]2CC[C@]2(C)C(=O)CC[C@@H]12`, the T/C is 94 % of control and 95 % of control under setting [16]; 91 % of control and 108 % of control under setting [14]; 90 % of control under setting [17]; 91 % of control (dose: 400.0 mg/kg/injection, vehicle: saline with Tween-80); 91 % of control (dose: 800.0 mg/kg/injection, vehicle: saline with Tween-80).
As for `O=[N+]([O-])c1ccc(N(CCO)CCO)c2c1no[n+]2[O-]`, the T/C is, setting by setting: under setting [3], 102 % of control; under setting [12], 114 % of control; under setting [13], 102 % of control.
`O=NN(CCCl)C(=O)NC1[C@H](O)CCC[C@@H]1O` (some centres not stated): the T/C (dose: 0.62 mg/kg/injection, vehicle: saline) is 159 % of control; the T/C under setting [1] is 225 % of control; the T/C (dose: 2.5 mg/kg/injection, vehicle: saline) is 251 % of control; the T/C (dose: 5.0 mg/kg/injection, vehicle: saline) was 190 % of control.
In the case of `CCCC(=O)O`, the T/C by setting is: (dose: 12.5 mg/kg/injection, vehicle: saline) 100 % of control; under setting [6], 96 % of control; under setting [15], 93 % of control; under setting [10], 98 % of control; under setting [11], 93 % of control.
Consider `ClC1=C(Cl)C(Cl)=C(Cl)C1=Cc1ccccc1`, for which the T/C reads like this: under setting [18], 112 % of control; under setting [3], 98 % of control; under setting [12], 106 % of control; under setting [13], 101 % of control.
On to `Cc1cc(=NO)cc(C)n1O`, for which the T/C was 109 % of control and 94 % of control (dose: 25.0 mg/kg/injection, vehicle: distilled water + alcohol); 98 % of control and 105 % of control (dose: 50.0 mg/kg/injection, vehicle: distilled water + alcohol); 87 % of control and 92 % of control (dose: 100.0 mg/kg/injection, vehicle: distilled water + alcohol); 92 % of control (dose: 200.0 mg/kg/injection, vehicle: distilled water + alcohol); 86 % of control and 89 % of control (dose: 400.0 mg/kg/injection, vehicle: distilled water + alcohol).
Consider `CC(=O)C1=C(O)C2(O)C(=O)c3c(c(C)c4ccc(C)c(O)c4c3O)CC2C(N)C1=O` (configuration not stated), for which the T/C by setting is: (dose: 3.75 mg/kg/injection, vehicle: saline + alcohol) 109 % of control; (dose: 7.3 mg/kg/injection, vehicle: saline + alcohol) 120 % of control; (dose: 7.5 mg/kg/injection, vehicle: saline + alcohol) 114 % of control.
For the compound `Cc1cc(N(CC(C)Br)CC(C)Br)ccc1N=Nc1ccccc1C(=O)O` (configuration not stated), the T/C runs as follows: (dose: 0.78 mg/kg/injection, vehicle: saline) 105 % of control; under setting [2], 110 % of control; (dose: 1.56 mg/kg/injection, vehicle: saline) 98 % of control; under setting [18], 164 % of control; under setting [4], 111 % of control; under setting [5], 108 % of control.
In the case of `Cc1ccc(NCCN(C)C)c2c(=O)c3cc(O)ccc3sc12`, the T/C is 164 % of control (dose: 12.0 mg/kg/injection, vehicle: Klucel (hydroxypropylcellulose) (HPC)); 183 % of control under setting [8]; 87 % of control under setting [9].
